# Counter-ions that a name gives are not always drawn.
# Tests used:
# [1] = target: T1, ER (Homo sapiens, UniProt P03372); assay: ER degradation and ER signaling in T47D cell line in vitro; type: cell-based; conditions: T47D cell lines; 0.001-1 μM
# T1 construct: from tissue; host or cells: uterus (also pituitary, bone and muscle as non-target tissue) of living human subjects
# T1 sequence (P03372 1-595): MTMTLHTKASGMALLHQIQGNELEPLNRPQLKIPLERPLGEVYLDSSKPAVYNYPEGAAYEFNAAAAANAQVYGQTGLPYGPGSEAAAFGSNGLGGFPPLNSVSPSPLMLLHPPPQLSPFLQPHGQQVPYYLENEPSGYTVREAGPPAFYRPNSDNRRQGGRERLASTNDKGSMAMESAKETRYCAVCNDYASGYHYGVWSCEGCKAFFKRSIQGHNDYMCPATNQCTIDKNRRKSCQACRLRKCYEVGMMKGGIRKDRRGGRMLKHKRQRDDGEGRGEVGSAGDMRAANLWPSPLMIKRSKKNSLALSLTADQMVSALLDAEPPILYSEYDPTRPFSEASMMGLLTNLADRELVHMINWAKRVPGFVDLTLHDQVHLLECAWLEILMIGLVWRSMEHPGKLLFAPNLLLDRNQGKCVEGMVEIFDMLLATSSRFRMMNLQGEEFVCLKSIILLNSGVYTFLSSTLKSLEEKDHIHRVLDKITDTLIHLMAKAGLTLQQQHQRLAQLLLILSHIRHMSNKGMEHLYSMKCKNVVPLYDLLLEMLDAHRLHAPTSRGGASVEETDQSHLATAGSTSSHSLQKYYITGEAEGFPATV
# Protocol: T47D cells were cultured in 5% CO2 incubator in 10 cm dishes to approximately 75% confluence in RPMI growth media supplemented with 10% FBS and 5 μg/mL human insulin.
# Cells were harvested and protein expression was analyzed using standard practice. Tumors were harvested at the indicated time points after the last day of dosing, homogenized in RIPA buffer with protease and phosphatase inhibitors using a Tissuelyser (Qiagen). Equal amounts of protein were separated by MW, transferred to nitrocellulose membranes and blotted with the following antibodies using standard practice: • Estrogen receptor (SantaCruz (HC-20); sc-543) • Progesterone receptor (Cell Signaling Technologies; 3153) • Vinculin (Sigma-Aldrich, v9131)
# qPCR analyses were performed as follows: Cells were harvested, mRNA was extracted, and equal amounts used for cDNA synthesis and qPCR with primers specific for progesterone receptor, GREB1, and TFF1 (LifeTech). Bands were quantified using 1D Quant software (GE).
# Three ER target genes, progesterone receptor (PgR), growth regulation by estrogen in breast cancer 1 (GREB1) and trefoil factor 1 (TFF1), were used as markers.
# [2] = Femur microarchitecture in ovariectomized rats (micro-CT); type: in vivo, Sprague-Dawley rats; conditions: OVX rats
# Protocol: As a model of postmenopausal bone loss, ovariectomy was performed on anesthetized adult female Sprague-Dawley rats, with sham surgery as a control. […] Animals in the sham surgery group were vehicle treated. All animals were euthanized by carbon dioxide inhalation 24 hours after the final dose. Bone mineral density was assessed at baseline and again after 4 weeks of treatment using PIXImus dual emission x-ray absorptiometry.
# At necropsy, the left femur of each animal was removed, dissected free of soft tissue and stored in 70% ethanol before analysis. A detailed qualitative and quantitative 3-D evaluation was performed using a micro-CT40 system (Scanco Systems, Wayne, PA). For each specimen, 250 image slices of the distal femur metaphysis were acquired. Morphometric parameters were determined using a direct 3-D approach in pre-selected analysis regions. Parameters determined in the trabecular bone included bone volume density, bone surface density, trabecular number, trabecular thickness, trabecular spacing, connectivity density, and apparent bone density.
# [3] = 4 weeks q.d., E2 0.01 mg/kg, RAD1901 3 mg/kg, mean
smiles,measurement,setting,value
"CCNCCc1ccc(CN(CC)c2cc(OC)ccc2[C@@H]2CCc3cc(O)ccc3C2)cc1 [RAD1901, (6R)-6-(2-(N-(4-(2-(ethylamino)ethyl)benzyl)-N-ethylamino)-4-methoxyphenyl)-5,6,7,8-tetrahydronaphthalen-2-ol dihydrochloride]","ER expression and ER signaling (PGR, GREB1, TFF1) (in words)",[1],complete ER degradation and inhibited ER signaling
same,BV/TV,[2]; [3],0.300%
same,ConnD,[2]; [3],113 ± 1/mm^3
same,TbN,[2]; [3],4.5 ± 1/mm
same,TbSp,[2]; [3],0.218 mm
same,TbTh,[2]; [3],0.088 mm
same,ABD,"[2]; 4 weeks q.d., E2 0.01 mg/kg, RAD1901 3 mg/kg, mean ± SD",370 ± 66 mgHA/ccm
same,trabecular architecture (in words),[2]; micro-CT of the distal femur,significant preservation of trabecular architecture

# From US12582617B2, “Methods for treating cancer” (RADIUS PHARMACEUTICALS, INC., priority 2015, dated 2026)
